Reference: patent publication US20160242416A1, “FUNGICIDAL ISOXAZOLINE CARBINOLS” (E I DU PONT DE NEMOURS AND COMPANY, priority 2015, published 2016)

Legend:
[1] = system: Puccinia recondita f sp. tritici; assay: Test F: wheat leaf rust, preventive spray on wheat seedlings; details: 10 ppm; wheat leaf rust; 100 = 100% disease control, 0 = no control
Botrytis cinerea = assay: Test B: gray mold, preventive spray on tomato seedlings; details: 10 ppm; gray mold on tomato; 100 = 100% disease control, 0 = no control
Excerpt: (§1) General protocol for preparing test solutions for Tests A-G: the test compounds were first dissolved in acetone in an amount equal to 3% of the final volume and then suspended at the desired concentration (in ppm) in acetone and purified water (50/50 mix by volume) containing 250 ppm of the surfactant PEG400 (polyhydric alcohol esters). The resulting test suspensions were then used in Tests A-G. Compounds were sprayed at a concentration of 50 ppm (*) or 10 ppm to the point of run-off on the test plants, the equivalent of a rate of 200 g/ha or 40 g/ha, respectively.
The test solution was sprayed to the point of run-off on tomato seedlings. The following day the seedlings were inoculated with a spore suspension of Botrytis cinerea (the causal agent of gray mold on many crops) and incubated in a saturated atmosphere at 20° C. for 48 h, and moved to a growth chamber at 27° C. for 2 days, after which time visual disease ratings were made.
(§2) Compounds with an asterisks (*) were applied at a concentration of 50 ppm, otherwise test solutions were applied at 10 ppm.

Zymoseptoria tritici = assay: Test E: wheat leaf blotch, preventive spray on wheat seedlings; details: 10 ppm; wheat leaf blotch; 100 = 100% disease control, 0 = no control
Excerpt: as §1
The test solution was sprayed to the point of run-off on wheat seedlings. The following day the seedlings were inoculated with a spore suspension of Zymoseptoria tritici (the causal agent of wheat leaf blotch) and incubated in a saturated atmosphere at 24° C. for 48 h, and then moved to a growth chamber at 20° C. for 17 days, after which time visual disease ratings were made.
as §2

Stagonospora nodorum = assay: Test D: wheat glume blotch, preventive spray on wheat seedlings; details: 10 ppm; wheat glume blotch; 100 = 100% disease control, 0 = no control
[2] = system: Erysiphe graminis f sp. tritici; assay: Test G: wheat powdery mildew, preventive spray on wheat seedlings; details: 10 ppm; wheat powdery mildew; 100 = 100% disease control, 0 = no control

| SMILES | Test F rating (% disease control) [1] [%] | Test B rating (% disease control) (Botrytis cinerea) [%] | Test E rating (% disease control) (Zymoseptoria tritici) [%] | Test D rating (% disease control) (Stagonospora nodorum) [%] | Test G rating (% disease control) [2] [%] |
| --- | --- | --- | --- | --- | --- |
| CC(C)(C)C(O)(Cn1cncn1)C1=NOC(CCc2ccc(Cl)cc2)C1 (single isomer, unassigned) [Compound 15] | 100 | 100 | 19 | 100 | 100 |
| CC(C)(C)C(O)(Cn1cncn1)C1=NOC(CCc2ccc(Cl)cc2)C1 (single isomer, unassigned) [Compound 16] | 100 | 32 | 8 | 100 | 99 |
| CCC(C)(C)C(O)(Cn1cncn1)C1=NOC(Cc2ccc(Cl)cc2)C1 (single isomer, unassigned) [Compound 17] | 100 | 51 | 7 | 98 | 100 |
| CCC(C)(C)C(O)(Cn1cncn1)C1=NOC(Cc2ccc(Cl)cc2)C1 (single isomer, unassigned) [Compound 18] | 100 | 0 | 6 | 87 | 99 |
| CCC(C)(C)C(O)(Cn1cncn1)C1=NOC(Cc2ccc(C(F)(F)F)cc2)C1 (single isomer, unassigned) [Compound 19] | 100 | 0 | 10 | 89 | 100 |
| CCC(C)(C)C(O)(Cn1cncn1)C1=NOC(Cc2ccc(C(F)(F)F)cc2)C1 (single isomer, unassigned) [Compound 20] | 100 | 0 | 98 | 65 | 99 |
| CC(C)(C)C(O)(Cn1cncn1)C1=NOC(COc2ccc(F)cc2F)C1 (single isomer, unassigned) [Compound 21] | 100 | 9 | 0 | 100 | 99 |
| CC(C)(C)C(O)(Cn1cncn1)C1=NOC(Cc2ccc(Cl)c(Cl)c2)C1 (single isomer, unassigned) [Compound 22] | 100 | 0 | 29 | 96 | 99 |
| CC(C)(C)C(O)(Cn1cncn1)C1=NOC(Cc2ccc(Cl)c(Cl)c2)C1 (single isomer, unassigned) [Compound 23] | 100 | 0 | 89 | 97 | 100 |
| CC(C)(C)C(O)(Cn1cncn1)C1=NOC(COc2ccc(OC(F)(F)F)cc2)C1 (single isomer, unassigned) [Compound 24] | 100 | 37 | 0 | 99 | 100 |
| CC(C)(C)C(O)(Cn1cncn1)C1=NOC(COc2ccc(OC(F)(F)F)cc2)C1 (single isomer, unassigned) [Compound 25] | 99 | 0 | 0 | 59 | 100 |
| CC(C)(C)C(O)(Cn1cncn1)C1=NOC(CSc2ccc(Cl)cc2)C1 (single isomer, unassigned) [Compound 26] | 74 | 92 | 0 | 70 | 89 |
| CC(C)(C)C(O)(Cn1cncn1)C1=NOC(CSc2ccc(Cl)cc2)C1 (single isomer, unassigned) [Compound 27] | 68 | 51 | 0 | 59 | 89 |
| CC(C)(C)C(O)(Cn1cncn1)C1=NOC(COc2ccc(-n3cccn3)cc2)C1 (single isomer, unassigned) [Compound 28] | 0 | 24 | 0 | 39 | 99 |
| CC(C)(C)C(O)(Cn1cncn1)C1=NOC(COc2ccc(-n3cccn3)cc2)C1 (single isomer, unassigned) [Compound 29] | 0 | 0 | 0 | 49 | 99 |
| OC(Cn1cncn1)(C1=NOC(Cn2cc(Br)cn2)C1)c1ccc(Cl)cc1 (single isomer, unassigned) [Compound 37] | 94 | 0 | 0 | 0 | 99 |
| OC(Cn1cncn1)(C1=NOC(Cn2cc(Br)cn2)C1)c1ccc(Cl)cc1 (single isomer, unassigned) [Compound 38] | 55 | 0 | 1 | 0 | 72 |
| OC(Cn1cncn1)(C1=NOC(c2ccc(Cl)cc2)C1)C12CC3CC(CC(C3)C1)C2 (single isomer, unassigned) [Compound 39] | 0 | 0 | 18 | 87 | 73 |
| OC(Cn1cncn1)(C1=NOC(c2ccc(Cl)cc2)C1)C12CC3CC(CC(C3)C1)C2 (single isomer, unassigned) [Compound 40] | 55 | 0 | 0 | 51 | 48 |
| CC(C)(C)C(O)(Cn1cncn1)C1=NOC(Cn2cc(Br)cn2)C1 (single isomer, unassigned) [Compound 41] | 41 | 0 | 0 | 0 | 90 |
| CC(C)(C)C(O)(Cn1cncn1)C1=NOC(Cn2cc(Br)cn2)C1 (single isomer, unassigned) [Compound 42] | 9 | 0 | 0 | 42 | 0 |
| OC(Cn1cncn1)(C1=NOC(COc2ccc3c(c2)OCO3)C1)c1ccc(Cl)cc1 (single isomer, unassigned) [Compound 43] | 100 | 31 | 0 | 38 | 98 |
| OC(Cn1cncn1)(C1=NOC(COc2ccc3c(c2)OCO3)C1)c1ccc(Cl)cc1 (single isomer, unassigned) [Compound 44] | 0 | 0 | 2 | 28 | 64 |
| CC(C)(C)C(O)(Cn1cncn1)C1=NOC(COc2ccc3c(c2)OCO3)C1 (single isomer, unassigned) [Compound 45] | 67 | 70 | 0 | 99 | 87 |
